# Measurements published in PubChem BioAssay (NCI).
#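 At the GI50, growth is halved. The concentration for full growth arrest is given as TGI.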
# Experiments:
# Test in all cases: growth of human tumour cells (NCI), 384-well format
# [1] = system: CAKI-1 renal
# [2] = system: HCC-2998 colon
# [3] = system: NCI-H522 lung
# [4] = system: TK-10 renal
# [5] = system: A549 NSCLC
# [6] = system: HL-60(TB) leukemia
# [7] = system: CCRF-CEM leukemia
# [8] = system: HCT-15 colon
# [9] = system: BT-549 breast
# [10] = system: SF-268 CNS
# [11] = system: SN12C renal
# [12] = system: T-47D breast
# [13] = system: ACHN renal
# [14] = system: RXF 393 renal
# [15] = system: SK-MEL-5 melanoma
# [16] = system: HOP-92 NSCLC
# [17] = system: SF-539 CNS
# [18] = system: RPMI-8226 leukemia
# [19] = system: HOP-62 NSCLC
# [20] = system: SK-MEL-28 melanoma
# [21] = system: OVCAR-4 ovarian
# [22] = system: U251 glioblastoma
# [23] = system: SNB-75 CNS
# [24] = system: MOLT-4 leukemia
# [25] = system: MCF7 breast
# [26] = system: SNB-19 CNS
# [27] = system: MALME-3M melanoma
# [28] = system: NCI-H23 lung
# [29] = system: OVCAR-3 ovarian
smiles,measurement,setting,value
CS(=O)(=O)N1CCc2c(-c3cnc(N)nc3)nc(N3CCOCC3)nc21,GI50,[1],335 nM
same,TGI,[1],3.51 µM
same,GI50,[2],1420 nM
same,TGI,[2],> 100 µM
same,GI50,[3],710 nM
same,TGI,[3],> 100 µM
same,GI50,[4],421 nM
same,TGI,[4],4.97 µM
same,GI50,[5],806 nM
same,TGI,[5],16.9 µM
same,GI50,[6],192 nM
same,TGI,[6],> 100 µM
same,GI50,[7],722 nM
same,TGI,[7],30.4 µM
same,GI50,[8],445 nM
same,TGI,[8],> 100 µM
same,GI50,[9],1050 nM
same,TGI,[9],5.67 µM
same,GI50,[10],1700 nM
same,TGI,[10],> 100 µM
same,GI50,[11],433 nM
same,TGI,[11],5.54 µM
same,GI50,[12],31.7 nM
same,TGI,[12],396 nM
same,GI50,[13],719 nM
same,TGI,[13],15.9 µM
same,GI50,[14],1160 nM
same,TGI,[14],4.97 µM
same,GI50,[15],1230 nM
same,TGI,[15],7.9 µM
same,GI50,[16],248 nM
same,TGI,[16],2590 nM
same,GI50,[17],1120 nM
same,TGI,[17],14.1 µM
same,GI50,[18],461 nM
same,TGI,[18],2470 nM
same,GI50,[19],1340 nM
same,TGI,[19],> 100 µM
same,GI50,[20],673 nM
same,TGI,[20],8.52 µM
same,GI50,[21],1650 nM
same,TGI,[21],7.87 µM
same,GI50,[22],2640 nM
same,TGI,[22],> 100 µM
same,GI50,[23],391 nM
same,TGI,[23],3.6 µM
same,GI50,[24],252 nM
same,TGI,[24],1550 nM
same,GI50,[25],47.3 nM
same,TGI,[25],> 100 µM
same,GI50,[26],5.41 µM
same,TGI,[26],> 100 µM
same,GI50,[27],281 nM
same,TGI,[27],2180 nM
same,GI50,[28],826 nM
same,TGI,[28],> 100 µM
same,GI50,[29],752 nM
same,TGI,[29],6.66 µM
